Experimental data: paper PMC12000251, “Evaluation of the Anti-Inflammatory Effects of Novel Fatty Acid-Binding Protein 4 Inhibitors in Microglia” (Journal of Neuroimmune Pharmacology, 2025)

How the values were obtained:
[1] = target: T1, Recombinantly-expressed human FABP4 (Homo sapiens, UniProt P15090); assay: Isothermal titration calorimetry (ITC) binding affinity to FABP4; settings: one-site binding model, read-out: KD (ITC titration of FABP4, Figure S1)
T1 construct: made in house
Experimental: A prior fragment screen identified a series of bi-aryl sulfonamides that bound to FABP4. Analogues of this chemical sulfonamide scaffold were then purchased, which led to the identification of the compounds used in this study (MFP-0011462, MFP-0012314, MFP-0012318, and MFP-0012328). Their predicted LogP and tPSA values were calculated in Vortex v2020.1.117658-s (Dotmatics, Boston, MA). The binding affinity of these four compounds was characterised by isothermal titration calorimetry (ITC). ITC was carried out using an iTC200 microcalorimeter (MicroCal, United Kingdom) with a coin shaped sample cell (201.4 μL) with stirring at 1000 rpm at 25°C. Titrations were performed in an ITC buffer (50 mM sodium phosphate, 50 mM NaCl, pH 7.4 with 2% DMSO). Compounds were diluted from concentrated stocks in ITC buffer and loaded into the titration syringe at a concentration of 1 mM, with a final DMSO concentration of 2% (v/v). Recombinantly-expressed human FABP4 was prepared as described previously (Lee et al. [2015a]) in an identical buffer at a protein concentration of 80 μM and placed in the sample cell. A thermal equilibration step at 25°C was followed by an initial 180 s delay step and subsequently an initial 0.2 μL injection. 16 serial injections of the 1 mM compound solution (2 μL each) were made at intervals of 220 s with continuous stirring of the solution in the sample cell. The iTC200 control software was used to operate and acquire raw data as power (microcalories/sec) vs time (min). The data were processed using the Origin 7.0 software (MicroCal) and the binding affinity (KD) was calculated by fitting the data to a one-site binding model.

[2] = 1D 1H NMR aqueous solubility in phosphate buffer; assay type: physicochemical; settings: kinetic from dmso stock, phosphate buffer pH 7.4 in D2O, 0.1% d6-DMSO, 25 °C, range 3.125–100 µM, read-out: Soluble in phosphate buffer up to (concentration)
Experimental: 1D ^1H NMR was employed to determine the solubility limits of the four MFP compounds and BMS309403 in phosphate buffer. This method has been commonly used to determine compound solubility in the drug discovery setting (Devine et al. [2014]; Lee et al. [2015b]; Lin et al. [2009]). A 100 mM of stock solution of each compound was first prepared in d6-DMSO. These stock solutions were then added into phosphate buffer (50 mM sodium phosphate, 25 mM NaCl, 100 µM of DSS, pH 7.4 in D2O) to achieve a final d6-DMSO concentration of 0.1% (v/v) which is equivalent to the DMSO concentration present in BV-2 cell culture experiments. All samples were inspected to note whether visible precipitates were formed. ^1H NMR spectra for all of the samples were acquired using Bruker Avance III 600 MHz spectrometer at 25 °C. Experimental data were acquired using a relaxation delay of 5 s with 128 scans, and water suppression using an excitation sculpting pulse scheme. Mestrelab Research 13.0 software was used to integrate the proton resonances of the compounds. A well-resolved peak (i.e. no overlaps with any other peaks) in the spectrum of each compound was chosen for integration, relative to the DSS peak (at 0 ppm). […] In addition, the chemical shifts of the resonances in the 1D ^1H NMR spectra were monitored.

LPS-activated BV-2 cells = assay: Extracellular nitrite (Griess assay) from LPS-activated BV-2 cells; assay type: cell-based, mouse; settings: 50 µM, 1 µg/mL LPS 24 h
Experimental: BV-2 cells were cultured in DMEM/F-12 media supplemented with 10% (v/v) FBS and 1% (v/v) penicillin/streptomycin, and kept at 37 °C in a humidified incubator ([…], 5% CO2) for all studies. Cells with 80% confluency were used for experiments. At 24 h post-seeding, BV-2 cells were treated with either of the MFP compounds (at concentrations detailed below) or vehicle (0.1% (v/v) DMSO) and 1 µg/mL LPS for a period of 24 h. In some experiments (detailed in Results), BV-2 cells were exposed to MFP compounds for 2 h before a 24 h exposure to LPS and MFP compounds, and in some studies, in the presence of FABP4 siRNA using a 24 h treatment that we have previously employed (Low et al. [2021]). […]
For measurement of extracellular nitrite concentrations, the Griess assay was performed as per the manufacturer’s protocol (Molecular Probes, Eugene, OR) with minor changes. […] The absorbance of the media samples was measured on a Perkin-Elmer Enspire plate reader at 548 nm, with nitrite concentrations in media samples obtained by back calculating sample absorbance values back to a standard curve prepared through serial dilution of NaNO2 prepared in media.

T1 sequence (P15090 whole entry): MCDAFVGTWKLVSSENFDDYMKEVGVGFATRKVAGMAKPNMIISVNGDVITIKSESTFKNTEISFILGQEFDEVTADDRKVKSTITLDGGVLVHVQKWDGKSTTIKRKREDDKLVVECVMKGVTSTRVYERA

**Q.** What does the source list for `O=C(O)c1cccc(NS(=O)(=O)c2ccc(Cl)c(Cl)c2)c1` [MFP-0012328]?
**A.** Kd [1]: 0.316 µM; solubility [2]: ≥ 100 µM; attenuation of LPS-mediated release of nitrite (LPS-activated BV-2 cells): 51.3%
